Experimental data as given in US9518018B2, “3-alkoxy, thioalkyl and amino-4-amino-6-(substituted)picolinates and their use as herbicides” (Dow AgroSciences LLC, priority 2011, dated 2016).

What was measured:
[1] = test system: ZEAMX: corn (Zea mays); test: Post-Emergent Test I herbicidal activity; format: in vivo; conditions: Zea mays, post-emergence, 336 h, read-out: Visual Growth Reduction (%)-14 Days after Application ZEAMX; for pest or weed control at 140 g/ha: Table 3, 140 g ai/ha; for pest or weed control at 70 g/ha: Table 3, 70 g ai/ha
Outline: (§1)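 Greenhouse plants at first-second true leaf stage sprayed post-emergence by track sprayer at 187 L/ha with compound in acetone/DMSO/water/isopropanol carrier with crop oil concentrate and Triton X-155, top rate plus ½× to 1/16× serial rates. Injury scored visually at 14 d, 0-100% versus untreated plants; GR20, GR50, GR80 from probit analysis.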

[2] = test system: ABUTH: velvetleaf (Abutilon theophrasti); test: Post-Emergent Test I herbicidal activity; format: in vivo; conditions: Abutilon theophrasti, post-emergence, 336 h, read-out: Visual Growth Reduction (%)-14 Days after Application ABUTH; for pest or weed control at 140 g/ha: Table 3, 140 g ai/ha; for pest or weed control at 70 g/ha: Table 3, 70 g ai/ha
Outline: as §1

[3] = test system: CHEAL: lambsquarters (Chenopodium album); test: Post-Emergent Test I herbicidal activity; format: in vivo; conditions: Chenopodium album, post-emergence, 336 h, read-out: Visual Growth Reduction (%)-14 Days after Application CHEAL; for pest or weed control at 140 g/ha: Table 3, 140 g ai/ha; for pest or weed control at 70 g/ha: Table 3, 70 g ai/ha
Outline: as §1

[4] = test system: ORYSA: rice (Oryza sativa); test: Post-Emergent Test I herbicidal activity; format: in vivo; conditions: post-emergence, 336 h, read-out: Visual Growth Reduction (%)-14 Days after Application ORYSA; for pest or weed control at 140 g/ha: Table 3, 140 g ai/ha; for pest or weed control at 70 g/ha: Table 3, 70 g ai/ha
Outline: as §1

[5] = test system: EPHHL: wild poinsettia (Euphorbia heterophylla); test: Post-Emergent Test I herbicidal activity; format: in vivo; conditions: post-emergence, 336 h, read-out: Visual Growth Reduction (%)-14 Days after Application EPHHL; for pest or weed control at 140 g/ha: Table 3, 140 g ai/ha; for pest or weed control at 70 g/ha: Table 3, 70 g ai/ha
Outline: as §1

[6] = test system: CYPES: yellow nutsedge (Cyperus esculentus); test: Post-Emergent Test I herbicidal activity; format: in vivo; conditions: post-emergence, 336 h, read-out: Visual Growth Reduction (%)-14 Days after Application CYPES; for pest or weed control at 140 g/ha: Table 3, 140 g ai/ha; for pest or weed control at 70 g/ha: Table 3, 70 g ai/ha
Outline: as §1

[7] = test system: ECHCG: barnyardgrass (Echinochloa crus-galli); test: Post-Emergent Test I herbicidal activity; format: in vivo; conditions: post-emergence, 336 h, read-out: Visual Growth Reduction (%)-14 Days after Application ECHCG; for pest or weed control at 140 g/ha: Table 3, 140 g ai/ha; for pest or weed control at 70 g/ha: Table 3, 70 g ai/ha
Outline: as §1

SMILES | melting point [°C] | pest or weed control at 140 g/ha [1] [%] | pest or weed control at 140 g/ha [2] [%] | pest or weed control at 140 g/ha [3] [%] | pest or weed control at 140 g/ha [4] [%] | pest or weed control at 140 g/ha [5] [%] | pest or weed control at 140 g/ha [6] [%] | pest or weed control at 140 g/ha [7] [%] | also measured
COc1c(C(=O)O)nc(-c2ccc3c(c2)OCO3)c(F)c1N [Compound 53] | 223 to 225 | 75 | 80 | 100 | 15 | 0 | 100 | 80 | 
COC(=O)c1nc(Cl)c(F)c(N)c1SC [Compound 74, Methyl 4-amino-6-chloro-5-fluoro-3-(methylthio)picolinate] | 75 to 77 | 0 | 0 | 0 | 0 | 0 | 0 | 0 | 
COC(=O)c1nc(-c2ccc(Cl)cc2)c(Cl)c(N)c1OC [Compound 44, methyl 4-amino-5-chloro-6-(4-chlorophenyl)-3-methoxypicolinate] | 139 to 141 | 15 | 50 | 100 | 0 | 0 | 100 | 0 | 
COc1c(C(=O)O)nc(-c2ccc(F)cc2)c(F)c1N [Compound 52] | 149 to 151 | 50 |  | 100 | 0 | 100 | 100 | 60 | 
CNc1cc(-c2ccc(Cl)cc2)nc(C(=O)OC)c1N [Compound 86, Methyl 3-amino-6-(4-chlorophenyl)-4-(methylamino)picolinate] | 178 to 200 |  |  |  |  |  |  |  | pest or weed control at 280 g/ha ([1]; Table 3, 280 g ai/ha): 0%; pest or weed control at 280 g/ha ([2]; Table 3, 280 g ai/ha): 40%; pest or weed control at 280 g/ha ([3]; Table 3, 280 g ai/ha): 95%; pest or weed control at 280 g/ha ([4]; Table 3, 280 g ai/ha): 0%; pest or weed control at 280 g/ha ([5]; Table 3, 280 g ai/ha): 50%; pest or weed control at 280 g/ha ([6]; Table 3, 280 g ai/ha): 0%
COc1c(C(=O)O)nc(-c2ccc(I)cc2)c(F)c1N [Compound 55] |  |  |  |  |  |  |  |  | pest or weed control at 132 g/ha ([1]; Table 3, 132 g ai/ha): 80%; pest or weed control at 132 g/ha ([2]; Table 3, 132 g ai/ha): 85%; pest or weed control at 132 g/ha ([3]; Table 3, 132 g ai/ha): 90%; pest or weed control at 132 g/ha ([4]; Table 3, 132 g ai/ha): 10%; pest or weed control at 132 g/ha ([5]; Table 3, 132 g ai/ha): 100%; pest or weed control at 132 g/ha ([6]; Table 3, 132 g ai/ha): 100%; pest or weed control at 132 g/ha ([7]; Table 3, 132 g ai/ha): 100%
COC(=O)c1nc(-c2ccc(Cl)c(OC)c2F)cc(N)c1OC(F)F [Compound 9] | 162 to 164 |  |  |  |  |  |  |  | 
COc1c(N)cc(C(C)(F)F)nc1C(=O)O [Compound 82, 4-amino-6-(1,1-difluoroethyl)-3-methoxypicolinic acid] |  | 0 | 20 | 85 | 0 | 80 | 0 | 0 | 
COC(=O)c1nc(-c2ccc(I)c(F)c2)c(F)c(N)c1OC [Compound 27] |  | 70 | 60 | 90 | 0 | 100 | 100 | 60 | 
COc1c(C(=O)O)nc(-c2ccc(Cl)cc2F)c(F)c1N [Compound 71] |  |  |  |  |  |  |  |  | pest or weed control at 70 g/ha [1]: 70%; pest or weed control at 70 g/ha [2]: 80%; pest or weed control at 70 g/ha [3]: 90%; pest or weed control at 70 g/ha [4]: 0%; pest or weed control at 70 g/ha [5]: 100%; pest or weed control at 70 g/ha [6]: 100%; pest or weed control at 70 g/ha [7]: 85%

Further lines, with some results ahead:

melting point [°C] | SMILES | pest or weed control at 140 g/ha [1] [%] | pest or weed control at 140 g/ha [2] [%] | pest or weed control at 140 g/ha [3] [%] | pest or weed control at 140 g/ha [4] [%] | pest or weed control at 140 g/ha [5] [%] | pest or weed control at 140 g/ha [6] [%] | pest or weed control at 140 g/ha [7] [%] | also measured
123 to 125 | COC(=O)c1nc(-c2ccc([Si](C)(C)C)c(F)c2F)c(F)c(N)c1OC |  |  |  |  |  |  |  | 
147 to 148 | COc1c(C(=O)O)nc(-c2cc(F)c(Br)cc2F)c(F)c1N [Compound 59] |  |  |  |  |  |  |  | pest or weed control at 70 g/ha [1]: 70%; pest or weed control at 70 g/ha [2]: 80%; pest or weed control at 70 g/ha [3]: 100%; pest or weed control at 70 g/ha [4]: 5%; pest or weed control at 70 g/ha [5]: 100%; pest or weed control at 70 g/ha [6]: 50%; pest or weed control at 70 g/ha [7]: 100%
132 to 134 | COc1c(C(=O)O)nc(-c2cc(F)c(I)cc2F)c(F)c1N [Compound 60] |  |  |  |  |  |  |  | pest or weed control at 70 g/ha [1]: 75%; pest or weed control at 70 g/ha [2]: 60%; pest or weed control at 70 g/ha [3]: 90%; pest or weed control at 70 g/ha [4]: 15%; pest or weed control at 70 g/ha [5]: 100%; pest or weed control at 70 g/ha [6]: 50%; pest or weed control at 70 g/ha [7]: 95%
93 to 94 | COC(=O)c1nc(-c2ccc(Cl)cc2)c(F)c(N)c1OC [Compound 31, methyl 4-amino-6-(4-chlorophenyl)-5-fluoro-3-methoxypicolinate] | 85 | 100 | 100 | 15 | 100 | 100 | 95 | 
116 to 118 | COC(=O)c1nc(-c2cc(F)c(Br)cc2F)c(F)c(N)c1OC [Compound 20] |  |  |  |  |  |  |  | pest or weed control at 70 g/ha [1]: 80%; pest or weed control at 70 g/ha [2]: 85%; pest or weed control at 70 g/ha [3]: 100%; pest or weed control at 70 g/ha [4]: 0%; pest or weed control at 70 g/ha [5]: 100%; pest or weed control at 70 g/ha [6]: 50%; pest or weed control at 70 g/ha [7]: 80%
133 to 135 | COc1c(C(=O)O)nc(-c2ccc(C(F)(F)F)c(F)c2F)c(F)c1N [Compound 56] | 75 | 80 | 90 | 10 | 100 | 50 | 100 | 
97 to 99 | COC(=O)c1nc(-c2ccc(C(F)(F)F)cc2)c(F)c(N)c1OC [Compound 35] | 70 | 75 | 100 | 0 | 100 | 100 | 80 | 
127 to 129 | COC(=O)c1nc(-c2ccc([Si](C)(C)C)cc2F)c(F)c(N)c1OC |  |  |  |  |  |  |  | 
137 | COc1c(C(=O)O)nc(-c2ccc(Cl)c(F)c2)c(F)c1N [Compound 49] | 90 | 100 | 100 | 25 | 100 | 100 | 100 | 
137 to 139 | COC(=O)c1nc(-c2cc(F)c([Si](C)(C)C)cc2F)c(F)c(N)c1OC |  |  |  |  |  |  |  | 
